The record followed here is DBAASP.

The term MIC denotes the lowest concentration found to suppress growth. The low end stands for inhibition by little substance, the high end for a need for much substance.

Holding throughout (assay): ≥ marks a high value that may be exact or a test limit, other limits are often not marked, values filed in µg/mL are converted to µM
For test [1], the system named is Acinetobacter baumannii ATCC BAA-1605.
Test [2] concerns Enterococcus faecium ATCC 700221.
The test system of test [3] is Staphylococcus aureus ATCC 33591.
In test [4] the test system is Pseudomonas aeruginosa ATCC 27853.
Test [5] has as its system Klebsiella pneumoniae ATCC 700603.
The subject of test [6] is Escherichia coli ATCC 25922.
In test [7] the test system is Xanthomonas campestris pv. campestris.
Test [8] concerns Pseudomonas aeruginosa.
The subject of test [9] is Streptococcus pyogenes AP1.
Test [10] relates to Xanthomonas oryzae pv. oryzae.
Test [11] has as its system Pseudomonas syringae.
Test [12] deals with Klebsiella pneumoniae.
Test [13] has as its system Staphylococcus aureus ATCC 29213.
Test [14] deals with Escherichia coli.
Test [15] relates to Candida albicans SC5314.
Test [16] relates to Staphylococcus aureus.
Test [17] has as its system Xanthomonas vesicatoria.
For test [18], the system named is Streptococcus pneumoniae TIGR4.
The subject of test [19] is Cryptococcus neoformans var. grubii H99.
Test [20] has as its system Staphylococcus aureus ATCC 25923.
Test [21] deals with Klebsiella pneumoniae KpC+001825971.
Test [22] has as its system Staphylococcus aureus MR.
The subject of test [23] is Enterobacter cloacae.
For test [24], the system named is Staphylococcus aureus ATCC 12600.
Test [25] relates to Pseudomonas aeruginosa PA14.
Test [26] has as its system Escherichia coli KpC+001812446.
Test [27] has as its system Pseudomonas aeruginosa PAO1.
Test [28] concerns Klebsiella pneumoniae ATCC 13883.
The subject of test [29] is Escherichia coli BL21.
In test [30] the test system is Acinetobacter baumannii.
Test [31] has as its system Salmonella enterica subsp. enterica serovar Typhi CMCC 50071.
Test [32] has as its system Salmonella enterica subsp. enterica serovar Typhimurium C77-31.
Test [33] has as its system Salmonella enterica subsp. enterica CMCC 47020.
Test [34] relates to Staphylococcus aureus CMCC 26074.
For test [35], the system named is Bacillus cereus CMCC 6303.
Test [36] deals with Cronobacter sakazakii ATCC 29544.
Test [37] relates to Salmonella enterica subsp. enterica serovar Pullorum C79-13.
Test [38] concerns Escherichia coli UB1005.
In test [39] the test system is Salmonella enterica subsp. enterica serovar Typhimurium ATCC 14028.
Test [40] has as its system Listeria monocytogenes CMCC 54004.
The test system of test [41] is Candida parapsilosis ATCC 22019.
The subject of test [42] is Trichophyton rubrum ATCC 28189.
For test [43], the system named is Candida albicans ATCC 24433.

In brackets after ≈: the same amount, converted by molar mass. Several values for one entry are separate records, joined by “and”; a condition that tells them apart may be missing. Identical values can stand only once.

Take `CC[C@H](C)[C@H](NC(=O)[C@H](CCCCN)NC(=O)[C@H](CCCN=C(N)N)NC(=O)[C@H](Cc1ccccc1)NC(=O)[C@H](CC(C)C)NC(=O)[C@H](CCCN=C(N)N)NC(=O)[C@@H](N)CCCCN)C(=O)N[C@@H](CC(C)C)C(=O)N[C@@H](CCCN=C(N)N)C(=O)N[C@@H](Cc1ccc(O)cc1)C(=O)N[C@@H](CC(C)C)C(N)=O` [KRLFRKILRYL]: the MIC in test [1] is 11.6 µM (≈ 17.5 µg/mL); in test [2], 23.2 µM (≈ 35 µg/mL); in test [3], at least 46.8 µM; in test [4] it was 46.8 µM (≈ 70.5 µg/mL); in test [5], 23.2 µM (≈ 35 µg/mL); in test [6], 46.8 µM (≈ 70.5 µg/mL).
With `CC[C@H](C)[C@H](NC(=O)[C@H](CCC(=O)O)NC(=O)[C@H](Cc1ccc(O)cc1)NC(=O)[C@@H](N)CCCCN)C(=O)N[C@H](C(=O)N[C@H](C(=O)N[C@H](C(=O)N[C@@H](Cc1cnc[nH]1)C(=O)N[C@@H](CC(N)=O)C(=O)N[C@@H](CC(C)C)C(=O)N[C@@H](Cc1ccccc1)C(=O)N[C@@H](CCCN=C(N)N)C(=O)N[C@@H](CCCCN)C(=O)N[C@@H](CC(C)C)C(=O)N[C@H](C(=O)N[C@@H](Cc1cnc[nH]1)C(=O)N[C@@H](CCCN=C(N)N)C(=O)N[C@@H](CC(C)C)C(=O)N[C@@H](Cc1ccccc1)C(=O)N[C@@H](CCCN=C(N)N)C(=O)N[C@@H](CCCN=C(N)N)C(=O)N[C@@H](CC(N)=O)C(=O)N[C@@H](Cc1ccccc1)C(=O)NCC(=O)N[C@@H](Cc1ccc(O)cc1)C(=O)N[C@H](C(=O)N[C@@H](CC(C)C)C(=O)N[C@@H](CCCN=C(N)N)C(=O)O)[C@@H](C)O)[C@@H](C)O)[C@@H](C)CC)[C@@H](C)O)[C@@H](C)O` [KYEITTIHNLFRKLTHRLFRRNFGYTLR], the MIC in [7] was 5 µM (≈ 18 µg/mL); in test [8] it was 14.1 µM (≈ 50.8 µg/mL); in test [9] it was 10 µM (≈ 36 µg/mL); in test [10], 5 µM (≈ 18 µg/mL); in test [11], 5 µM (≈ 18 µg/mL); in test [12], 10 µM and 25 µM. In addition, the MIC in [4] is 10 µM (≈ 36 µg/mL); in test [13] it was 5 µM (≈ 18 µg/mL); in test [14] it was 3.54 µM (≈ 12.7 µg/mL); in test [15], 25 µM and ≥ 50 µM; in test [16], 5 µM (≈ 18 µg/mL); in [17], 1 µM (≈ 3.6 µg/mL). For the same compound, the MIC in test [18] is 5 µM (≈ 18 µg/mL); in [6], 10 µM (≈ 36 µg/mL); in [19] it was 25 µM and ≥ 50 µM.
Regarding `CC[C@H](C)[C@H](NC(=O)[C@H](CCCCN)NC(=O)[C@H](C)NC(=O)[C@H](C)NC(=O)[C@H](CC(C)C)NC(=O)[C@H](CCCN=C(N)N)NC(=O)[C@H](CC(C)C)NC(=O)[C@H](C)NC(=O)[C@H](CC(C)C)NC(=O)[C@H](CCCCN)NC(=O)[C@H](CC(C)C)NC(=O)[C@H](CCCCN)NC(=O)[C@H](CCCCN)NC(=O)[C@H](CCSC)NC(=O)[C@@H]1CCCN1)C(=O)N[C@@H](C)C(=O)N1CCC[C@H]1C(=O)N[C@H](C(=O)N[C@@H](Cc1c[nH]c2ccccc12)C(=O)O)C(C)C` [PMKKLKLALRLAAKIAPVW], the MIC in [20] is 8 µM (≈ 17.2 µg/mL); in test [21], at least 32 µM; in test [22], at least 32 µM; in [23], at least 32 µM; in [24] it was 16 µM (≈ 34.4 µg/mL); in [25], 8 µM (≈ 17.2 µg/mL). Also, the MIC in test [26] was 2 µM (≈ 4.3 µg/mL); in test [27], 16 µM (≈ 34.4 µg/mL); in [28], 8 µM (≈ 17.2 µg/mL); in test [29], 2 µM (≈ 4.3 µg/mL); in test [6], 8 µM (≈ 17.2 µg/mL); in [30] it was 4 µM (≈ 8.59 µg/mL).
As for `CC[C@H](C)[C@H](NC(=O)[C@H](CCCN=C(N)N)NC(=O)[C@H](Cc1c[nH]c2ccccc12)NC(=O)[C@H](CCCCN)NC(=O)[C@@H](N)CCCN=C(N)N)C(=O)N[C@H](C(=O)N[C@H](C(=O)N[C@H](C(=O)N[C@@H](CCCN=C(N)N)C(=O)N[C@H](C(=O)N[C@@H](CCCN=C(N)N)C(=O)N[C@@H](CCCN=C(N)N)C(N)=O)C(C)C)[C@@H](C)CC)C(C)C)C(C)C` [RKWRIVVIRVRR], the MIC is 8 µM (≈ 13.1 µg/mL) in test [31]; at least 32 µM in test [32]; at least 64 µM in test [33]; 128 µM (≈ 209 µg/mL) in test [20]; at least 256 µM in [34]; 16 µM (≈ 26.2 µg/mL) in test [35]. In addition, the MIC in test [36] is at least 32 µM; in test [37], 8 µM (≈ 13.1 µg/mL); in test [38], 8 µM (≈ 13.1 µg/mL); in test [39] it was 32 µM (≈ 52.4 µg/mL); in [40], 2 µM (≈ 3.27 µg/mL).
In the case of `CC[C@H](C)[C@H](NC(=O)[C@H](CCC(=O)O)NC(=O)[C@H](CO)NC(=O)[C@H](CCCN=C(N)N)NC(=O)[C@@H](N)CO)C(=O)N[C@H](C(=O)N[C@@H](CCC(N)=O)C(=O)N[C@@H](CCCN=C(N)N)C(=O)N[C@@H](CC(C)C)C(=O)N[C@@H](Cc1ccccc1)C(N)=O)C(C)C` [SRSEIVQRLF], the MIC was at least 324 µM in test [41]; at least 324 µM in test [42]; at least 324 µM in test [43]; over 324 µM in test [14]; over 324 µM in test [16].
